Measured values published in ChEMBL document CHEMBL1132521, “Synthesis and hypoglycemic effect of chrysin derivatives” (Bioorg Med Chem Lett, 1999).

What was measured:
Mus musculus [1] = test: In vivo hypoglycemic activity after administration (43 mg/kg) in mice on day 0 was determined; type: functional
Mus musculus [2] = test: In vivo hypoglycemic activity after administration (43 mg/kg) in mice on day 7 was determined; type: functional
[3] = Ratio of hypoglycemic activity in mice was tested on day 7.; type: functional
Mus musculus [4] = test: In vivo hypoglycemic activity after administration (45 mg/kg) in mice on day 0 was determined; type: functional
Mus musculus [5] = test: In vivo hypoglycemic activity after administration (45 mg/kg) in mice on day 7 was determined; type: functional
Mus musculus [6] = test: In vivo hypoglycemic activity after administration (40 mg/kg) in mice on day 7 was determined; type: functional
Mus musculus [7] = test: Daily water consumption was determined in mouse after oral administration of 500 mg/kg; type: functional
Mus musculus [8] = test: Abnormal symptoms was determined in mouse after oral administration of 5 mg/kg; - sign indicates abnormal symptoms in treated mouse; type: functional, organism-based; parameters: dose 5 mg/kg
Rattus norvegicus [9] = test: Kidney weight was determined in rat after oral administration of 500 mg/kg; type: functional
Rattus norvegicus [10] = test: Spleen weight was determined in rat after oral administration of 500 mg/kg; type: functional; parameters: unit not given beside the values
Mus musculus [11] = test: In vivo hypoglycemic activity after administration (40 mg/kg) in mice on day 0 was determined; type: functional
Mus musculus [12] = test: Abnormal symptoms was determined in mouse after oral administration of 500 mg/kg; - sign indicates abnormal symptoms in treated mouse; type: functional, organism-based; parameters: dose 500 mg/kg
Mus musculus [13] = test: Body weight was determined in mouse after oral administration of 100 mg/kg on day 0; type: functional
Rattus norvegicus [14] = test: Body weight was determined in rat after oral administration of 500 mg/kg on day 0; type: functional
Mus musculus [15] = test: Daily water consumption was determined in mouse after oral administration of 5 mg/kg; type: functional
Mus musculus [16] = test: Body weight was determined in mouse after oral administration of 5 mg/kg on day 7; type: functional
Mus musculus [17] = test: Daily food consumption was determined in mouse after oral administration of 20 mg/kg; type: functional
Rattus norvegicus [18] = test: Liver weight was determined in rat after oral administration of 500 mg/kg; type: functional; parameters: unit not given beside the values
Mus musculus [19] = test: Body weight was determined in mouse after oral administration of 20 mg/kg on day 7; type: functional
Rattus norvegicus [20] = test: Daily food consumption was determined in rat after oral administration of 500 mg/kg; type: functional
Rattus norvegicus [21] = test: Daily water consumption was determined in rat after oral administration of 500 mg/kg; type: functional
Mus musculus [22] = test: Body weight was determined in mouse after oral administration of 5 mg/kg on day 0; type: functional
Mus musculus [23] = test: Body weight was determined in mouse after oral administration of 500 mg/kg on day 7; type: functional
Mus musculus [24] = test: Body weight was determined in mouse after oral administration of 500 mg/kg on day 0; type: functional
Mus musculus [25] = test: Body weight was determined in mouse after oral administration of 100 mg/kg on day 7; type: functional
Rattus norvegicus [26] = test: Lung weight was determined in rat after oral administration of 500 mg/kg; type: functional; parameters: unit not given beside the values
Mus musculus [27] = test: Daily water consumption was determined in mouse after oral administration of 100 mg/kg; type: functional
Mus musculus [28] = test: Body weight was determined in mouse after oral administration of 20 mg/kg on day 0; type: functional
Mus musculus [29] = test: Daily food consumption was determined in mouse after oral administration of 500 mg/kg; type: functional
Mus musculus [30] = test: Daily water consumption was determined in mouse after oral administration of 20 mg/kg; type: functional
Mus musculus [31] = test: Abnormal symptoms was determined in mouse after oral administration of 100 mg/kg; - sign indicates abnormal symptoms in treated mouse; type: functional, organism-based; parameters: dose 100 mg/kg
Rattus norvegicus [32] = test: Body weight was determined in rat after oral administration of 500 mg/kg on day 7; type: functional
Mus musculus [33] = test: Daily food consumption was determined in mouse after oral administration of 100 mg/kg; type: functional
Mus musculus [34] = test: Daily food consumption was determined in mouse after oral administration of 5 mg/kg; type: functional
Mus musculus [35] = test: Abnormal symptoms was determined in mouse after oral administration of 20 mg/kg; - sign indicates abnormal symptoms in treated mouse; type: functional, organism-based; parameters: dose 20 mg/kg
Rattus norvegicus [36] = test: Abnormal symptoms was determined in rat after oral administration of 500 mg/kg; - sign indicates abnormal symptoms in treated mouse; type: functional, organism-based; parameters: dose 500 mg/kg
Mus musculus [37] = test: In vivo hypoglycemic activity after administration (50 mg/kg) in mice on day 0 was determined; type: functional
Mus musculus [38] = test: In vivo hypoglycemic activity after administration (50 mg/kg) in mice on day 7 was determined; type: functional
Mus musculus [39] = test: In vivo hypoglycemic activity after administration (42 mg/kg) in mice on day 0 was determined; type: functional
Mus musculus [40] = test: In vivo hypoglycemic activity after administration (42 mg/kg) in mice on day 7 was determined; type: functional

CC(=O)Oc1cc(OC(C)=O)c2c(=O)cc(-c3ccccc3)oc2c1 [CHRYSIN DIACETATE]
Blood glucose (Mus musculus [1]): 472 mg/dL | Blood glucose (Mus musculus [2]): 341.5 mg/dL | Ratio [3]: 72.4

CCOc1cc(OCC)c2c(=O)cc(-c3ccccc3)oc2c1
Blood glucose (Mus musculus [4]): 436.6 mg/dL | Blood glucose (Mus musculus [5]): 400.5 mg/dL | Ratio [3]: 91.7

Cc1ccc(C(=O)Oc2cc(O)c3c(=O)cc(-c4ccccc4)oc3c2)cc1
Blood glucose (Mus musculus [6]): 261.8 mg/dL | Water consumption (Mus musculus [7]): 82.08 mL | Activity (Mus musculus [8]): abnormal symptoms in treated mouse | Organ weight (Rattus norvegicus [9]): 0.98 | Organ weight (Rattus norvegicus [10]): 0.66 | Blood glucose (Mus musculus [11]): 464.3 mg/dL | Activity (Mus musculus [12]): abnormal symptoms in treated mouse | Body weight (Mus musculus [13]): 25.2 | Body weight (Rattus norvegicus [14]): 237.5 | Water consumption (Mus musculus [15]): 80.42 mL | Body weight (Mus musculus [16]): 32.2 | Food intake (Mus musculus [17]): 50.6 g | Organ weight (Rattus norvegicus [18]): 9.6 | Body weight (Mus musculus [19]): 31.4 | Food intake (Rattus norvegicus [20]): 112.83 g | Water consumption (Rattus norvegicus [21]): 216.83 mL | Body weight (Mus musculus [22]): 25.1 | Body weight (Mus musculus [23]): 31.2 | Body weight (Mus musculus [24]): 24.8 | Body weight (Mus musculus [25]): 31.6 | Organ weight (Rattus norvegicus [26]): 1.26 | Water consumption (Mus musculus [27]): 83.75 mL | Body weight (Mus musculus [28]): 24.7 | Food intake (Mus musculus [29]): 49.86 g | Water consumption (Mus musculus [30]): 80.75 mL | Ratio [3]: 56.4 | Activity (Mus musculus [31]): abnormal symptoms in treated mouse | Body weight (Rattus norvegicus [32]): 302.5 | Food intake (Mus musculus [33]): 50.78 g | Food intake (Mus musculus [34]): 49.35 g | Activity (Mus musculus [35]): abnormal symptoms in treated mouse | Activity (Rattus norvegicus [36]): abnormal symptoms in treated mouse

CCCCOc1cc(OCCCC)c2c(=O)cc(-c3ccccc3)oc2c1
Blood glucose (Mus musculus [1]): 454.4 mg/dL | Blood glucose (Mus musculus [2]): 405.7 mg/dL | Ratio [3]: 89.3

CCCCCCCCOc1cc(O)c2c(=O)cc(-c3ccccc3)oc2c1
Water consumption (Mus musculus [7]): 80.75 mL | Activity (Mus musculus [8]): abnormal symptoms in treated mouse | Organ weight (Rattus norvegicus [10]): 0.69 | Activity (Mus musculus [12]): abnormal symptoms in treated mouse | Body weight (Mus musculus [13]): 24.8 | Body weight (Rattus norvegicus [14]): 230.8 | Water consumption (Mus musculus [15]): 79.83 mL | Body weight (Mus musculus [16]): 30.8 | Food intake (Mus musculus [17]): 52.57 g | Organ weight (Rattus norvegicus [18]): 9.96 | Body weight (Mus musculus [19]): 32.1 | Food intake (Rattus norvegicus [20]): 113.08 g | Water consumption (Rattus norvegicus [21]): 205.91 mL | Blood glucose (Mus musculus [37]): 411.2 mg/dL | Body weight (Mus musculus [22]): 23.8 | Body weight (Mus musculus [23]): 30.1 | Body weight (Mus musculus [24]): 24 | Body weight (Mus musculus [25]): 31.6 | Organ weight (Rattus norvegicus [26]): 1.26 | Water consumption (Mus musculus [27]): 82.83 mL | Body weight (Mus musculus [28]): 25.5 | Food intake (Mus musculus [29]): 50.6 g | Water consumption (Mus musculus [30]): 81.67 mL | Ratio [3]: 51.4 | Activity (Mus musculus [31]): abnormal symptoms in treated mouse | Body weight (Rattus norvegicus [32]): 290.8 | Food intake (Mus musculus [33]): 51.41 g | Food intake (Mus musculus [34]): 51.28 g | Activity (Mus musculus [35]): abnormal symptoms in treated mouse | Activity (Rattus norvegicus [36]): abnormal symptoms in treated mouse | Blood glucose (Mus musculus [38]): 211.4 mg/dL

O=c1cc(-c2ccccc2)oc2cc(O)cc(O)c12 [CHRYSIN]
Blood glucose (Mus musculus [4]): 482.4 mg/dL | Blood glucose (Mus musculus [5]): 503.5 mg/dL | Ratio [3]: 104.4

CCCOc1cc(OCCC)c2c(=O)cc(-c3ccccc3)oc2c1
Water consumption (Mus musculus [7]): 81.75 mL | Activity (Mus musculus [8]): abnormal symptoms in treated mouse | Organ weight (Rattus norvegicus [9]): 0.97 | Organ weight (Rattus norvegicus [10]): 0.61 | Activity (Mus musculus [12]): abnormal symptoms in treated mouse | Body weight (Mus musculus [13]): 25.2 | Body weight (Rattus norvegicus [14]): 235.8 | Water consumption (Mus musculus [15]): 80 mL | Body weight (Mus musculus [16]): 28.2 | Food intake (Mus musculus [17]): 53.2 g | Organ weight (Rattus norvegicus [18]): 9.64 | Blood glucose (Mus musculus [39]): 448.3 mg/dL | Body weight (Mus musculus [19]): 31.9 | Food intake (Rattus norvegicus [20]): 115.41 g | Water consumption (Rattus norvegicus [21]): 218.5 mL | Body weight (Mus musculus [22]): 22.3 | Blood glucose (Mus musculus [40]): 287 mg/dL | Body weight (Mus musculus [23]): 29.5 | Body weight (Mus musculus [24]): 22.7 | Body weight (Mus musculus [25]): 32.1 | Organ weight (Rattus norvegicus [26]): 1.23 | Water consumption (Mus musculus [27]): 81.75 mL | Body weight (Mus musculus [28]): 25.3 | Food intake (Mus musculus [29]): 49.87 g | Water consumption (Mus musculus [30]): 80.92 mL | Ratio [3]: 64 | Activity (Mus musculus [31]): abnormal symptoms in treated mouse | Body weight (Rattus norvegicus [32]): 300.8 | Food intake (Mus musculus [33]): 49.77 g | Food intake (Mus musculus [34]): 48.09 g | Activity (Mus musculus [35]): abnormal symptoms in treated mouse | Activity (Rattus norvegicus [36]): abnormal symptoms in treated mouse

CCCCOc1cc(O)c2c(=O)cc(-c3ccccc3)oc2c1
Water consumption (Mus musculus [7]): 82.83 mL | Activity (Mus musculus [8]): abnormal symptoms in treated mouse | Organ weight (Rattus norvegicus [9]): 1.04 | Organ weight (Rattus norvegicus [10]): 0.71 | Activity (Mus musculus [12]): abnormal symptoms in treated mouse | Body weight (Mus musculus [13]): 23.5 | Body weight (Rattus norvegicus [14]): 235 | Water consumption (Mus musculus [15]): 82.5 mL | Body weight (Mus musculus [16]): 32.7 | Food intake (Mus musculus [17]): 52.81 | Organ weight (Rattus norvegicus [18]): 10.74 | Body weight (Mus musculus [19]): 30.6 | Food intake (Rattus norvegicus [20]): 113.58 | Water consumption (Rattus norvegicus [21]): 197.16 mL | Blood glucose (Mus musculus [37]): 545.6 mg/dL | Body weight (Mus musculus [22]): 24.9 | Body weight (Mus musculus [23]): 31.3 | Body weight (Mus musculus [24]): 24.3 | Body weight (Mus musculus [25]): 31 | Organ weight (Rattus norvegicus [26]): 1.22 | Water consumption (Mus musculus [27]): 80.92 mL | Body weight (Mus musculus [28]): 23.8 | Food intake (Mus musculus [29]): 50.4 | Water consumption (Mus musculus [30]): 79.33 mL | Ratio [3]: 46.3 | Activity (Mus musculus [31]): abnormal symptoms in treated mouse | Body weight (Rattus norvegicus [32]): 293.3 | Food intake (Mus musculus [33]): 50.53 | Food intake (Mus musculus [34]): 51.91 | Activity (Mus musculus [35]): abnormal symptoms in treated mouse | Activity (Rattus norvegicus [36]): abnormal symptoms in treated mouse | Blood glucose (Mus musculus [38]): 252.4 mg/dL
